For 20 molecules, IC50 results are on record in patent US20090215778A1, “Alpha-substituted Arylmethyl Piperazine Pyrazolo [1,5-alpha]Pyrimidine Amide Derivatives” (priority 2007, published 2009).

Assay [1] concerns HIV-1, NL4-3 strain. As to the kind of experiment: Virus infection assay (virus entry and single-cycle infection). In kind it is cell-based. Particulars: Human immunodeficiency virus 1, NL43, TZM-b1, read-out: Nl4. The procedure:
TZM-b1 indicator cells were propagated in Dulbecco's Modified Eagle's Medium (DMEM) containing 10% fetal bovine serum (FBS, heat-inactivated) and supplemented with gentamicin (50 ug/mL).
This assay determines the effects of compounds on virus entry and single-cycle infection of cells. In this assay, virus (HIV-1, NL4-3 strain) is added to indicator cells expressing the CD4 receptor and both the CXCR4 and CCR5 co-receptor. The cells contain both a lac Z and a luciferase reporter gene under control of the viral LTR transcription promoter. The cells and virus are incubated together in the presence of various concentrations of test compounds. Successful infection of the cells by the virus permits activation of the reporter gene by the viral Tat transcription factor. The resulting beta-galactosidase or luciferase activity is quantitated using a chemiluminescent substrate and a luminescent plate reader.
Specifically, one day prior to infection, 1.5×10^4 TZM-b1 indicator cells were added to each well of a 96-well microtiter plate. On the day of the experiment, virus (MOI 0.01) in 50 μL of medium (Dulbecco's Modified Eagle's Medium) supplemented with DEAE-dextran at a final concentration of 80 μg/mL was added to cells along with various concentrations of test compound in 50 μL of Dulbecco's Modified Eagle's Medium. Control wells had virus alone. Following a 4 hr incubation at 37° C., complete media [DMEM supplemented with 10% fetal bovine serum (FBS, heat-inactivated) and gentamicin (50 ug/mL)] was added. One day post-infection the level of virus infection was quantitated by detection of β-galactosidase expression using the Gal-Screen system (Applied Biosystems).

The target in assay [2] is T1, HIV Env six-helix bundle (6HB) structure (Human immunodeficiency virus type 1 group M subtype B, UniProt P04579).
T1 construct: H9 cells chronically infected with HIV-1 (H9/HIV-1RF); endogenous in cells; host or cells: H9 cells chronically infected with HIV-1 strain RF (Env is made from the virus in the infected cells, not by transfection)
T1 sequence (P04579 32-519): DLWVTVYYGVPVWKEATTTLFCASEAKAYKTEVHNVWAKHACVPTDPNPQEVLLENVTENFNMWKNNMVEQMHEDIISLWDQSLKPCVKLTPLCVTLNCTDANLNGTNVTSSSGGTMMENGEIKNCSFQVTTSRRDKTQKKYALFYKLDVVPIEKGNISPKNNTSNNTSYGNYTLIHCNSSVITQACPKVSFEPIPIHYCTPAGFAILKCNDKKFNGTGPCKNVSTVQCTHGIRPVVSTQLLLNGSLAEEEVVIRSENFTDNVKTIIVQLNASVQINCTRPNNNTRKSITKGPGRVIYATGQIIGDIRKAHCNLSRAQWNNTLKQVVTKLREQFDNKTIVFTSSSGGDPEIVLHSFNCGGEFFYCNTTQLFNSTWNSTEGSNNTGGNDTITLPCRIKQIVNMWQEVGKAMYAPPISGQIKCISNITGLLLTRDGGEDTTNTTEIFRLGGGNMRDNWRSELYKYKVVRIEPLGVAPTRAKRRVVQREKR
T1 sequence (P04579 520-865): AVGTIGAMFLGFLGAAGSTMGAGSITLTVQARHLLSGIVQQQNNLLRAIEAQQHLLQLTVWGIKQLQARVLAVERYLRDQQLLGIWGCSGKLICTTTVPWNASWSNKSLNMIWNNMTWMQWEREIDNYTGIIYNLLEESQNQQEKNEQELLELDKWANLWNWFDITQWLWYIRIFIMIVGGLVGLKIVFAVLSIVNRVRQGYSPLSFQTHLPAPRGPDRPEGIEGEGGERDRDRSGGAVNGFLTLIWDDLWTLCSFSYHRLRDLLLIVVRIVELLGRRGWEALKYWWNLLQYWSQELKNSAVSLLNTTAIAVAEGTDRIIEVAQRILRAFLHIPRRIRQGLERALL
Briefly: Six-helix bundle (6HB) assay. In kind it is cell-based, HIV-1 (strain RF). The procedure: 3×10^6H9 cells were incubated with 1 mL of HIV-1 (strain RF) supplemented with 40 μg/mL of DEAE-dextran. Virus and cells were incubated together at 37° C. for 2-4 hours with sporadic shaking to resuspend cells. 10 mL of media (RPMI 1640 containing 10% fetal bovine serum and supplemented with 50 μg/mL gentamicin) was then added and the virus-cell coculture was incubated at 37° C. in a humidified 5% CO2 incubator. 3 days post-infection and every 2-3 days thereafter, the infected H9/HIV-1RF cells were centrifuged, the supernatant was removed, and the cells were resuspended at a density of 0.3×10^6 cells/mL in media (RPMI 1640 containing 10% fetal bovine serum and supplemented with 50 μg/mL gentamicin). Chronically infected H9/HIV-1RF cells were used in experiments starting 12-15 days after infection and up to 40 days post-infection.
This assay determines the effect of compounds on conformational changes in HIV envelope glycoprotein (Env) that are required in order for Env to mediate the fusion of the viral and cellular membranes during virus entry and infection. Specifically, this assay measures the effect of compounds on the formation of the HIV Env six-helix bundle (6HB) structure.
H9 cells chronically infected with HIV-1 (H9/HIV-1RF) were resuspended in Stain/Wash Buffer (1% bovine serum albumin, 0.1% sodium azide in phosphate-buffered saline) and aliquoted at 2.5×10^5 cells per well into 96-well V-bottom plates containing various concentrations of test compounds. Cells and compounds were incubated for 30 minutes at 37° C. Recombinant soluble CD4 (sCD4) was then added to a final concentration of 1 μg/mL. Negative control wells contained no sCD4 and no test compound. Positive control wells contained sCD4 but no test compound. The plate was incubated for 1 hour at 37° C. to allow the sCD4 to bind to HIV Env and induce conformational changes in the Env protein. Antibody that is specific for the HIV Env six-helix bundle conformation was then added (1 μL polyclonal rabbit serum per well), and the plate was incubated for an additional 1 hour at 37° C. to permit antibody binding. The cells were then washed once with Stain/Wash Buffer to remove compound and excess antibody. The cells were resuspended in Stain/Wash Buffer containing PE-labeled anti-rabbit secondary antibody (KPL) at 0.25 μg per well. The cells were incubated for 45 min at 4° C. to permit secondary antibody binding. Fluorescence was detected using a BD FACSArray™ bioanalyzer. Compounds that inhibited Env conformational changes were identified as those that decreased primary antibody binding to the six-helix bundle epitope resulting in a decrease in fluorescence signal.

Read-outs that look alike come from different tables or passages of the source.

For the molecule `COc1ccc(-c2nc3c(C(=O)N4CCN([C@@H](C)c5cccc(C#N)c5)C[C@H]4C)cnn3c(C(F)(F)F)c2C)cc1`, the IC50 in assay [1] and in assay [2] was below 1000 nM in each case. For `COc1ccc(-c2nc3c(C(=O)N4CCN(C(CO)c5ccc(C(C)=O)s5)C[C@H]4C)cnn3c(C(F)(F)F)c2C)cc1` (stereo partly shown), the results for the IC50 in assay [1] and in assay [2] were below 1000 nM and 1100 to 10000 nM, respectively. With `COc1ccc(-c2nc3c(C(=O)N4CCN(C(CO)c5ccc(Cl)nc5)C[C@H]4C)cnn3c(C(F)(F)F)c2C)cc1` (stereo partly shown), the IC50 in assay [1] and in assay [2] was below 1000 nM each time. Consider `COc1ccc(-c2nc3c(C(=O)N4CCN(C(CO)c5ccc(C#N)cc5)C[C@H]4C)cnn3c(C(F)(F)F)c2C)cc1` (stereo partly shown), for which the IC50 in assay [1] and in assay [2] was 1100 to 10000 nM each time. For the molecule `COc1ccc(-c2nc3c(C(=O)N4CCN(C(C(N)=O)c5ccccc5)C[C@H]4C)cnn3c(C(F)(F)F)c2C)cc1` (stereo partly drawn) [1-piperazineacetamide, 4-[[5-(4-methoxyphenyl)-6-methyl-7-(trifluoromethyl)pyrazolo[1,5-α]pyrimidin-3-yl]carbonyl]-3-methyl-α-phenyl-, (3R)-], the IC50 in assay [1] and in assay [2] was below 1000 nM throughout. As to `CNC(=O)C(c1ccccc1)N1CCN(C(=O)c2cnn3c(C(F)(F)F)c(C)c(-c4ccc(OC)cc4)nc23)[C@H](C)C1` (stereo partly drawn) [1-piperazineacetamide, 4-[[5-(4-methoxyphenyl)-6-methyl-7-(trifluoromethyl)pyrazolo[1,5-α]pyrimidin-3-yl]carbonyl]-N,3-dimethyl-α-phenyl-, (3R)-], the IC50 in assay [1] and in assay [2] was below 1000 nM throughout. `COc1ccc(-c2nc3c(C(=O)N4CCN(C(C(=O)N(C)C)c5ccccc5)C[C@H]4C)cnn3c(C(F)(F)F)c2C)cc1` (stereo partly drawn) [1-piperazineacetamide, 4-[[5-(4-methoxyphenyl)-6-methyl-7-(trifluoromethyl)pyrazolo[1,5-α]pyrimidin-3-yl]carbonyl]-N,N,3-trimethyl-α-phenyl-, (3R)-]: the IC50 in assay [1] and in assay [2] was below 1000 nM each time.

In the case of `COc1ccc(-c2nc3c(C(=O)N4CCN(C(C(=O)O)c5ccccc5)C[C@H]4C)cnn3c(C(F)(F)F)c2C)cc1` (stereo partly drawn) [1-piperazineacetic acid, 4-[[5-(4-methoxyphenyl)-6-methyl-7-(trifluoromethyl)pyrazolo[1,5-α]pyrimidin-3-yl]carbonyl]-3-methyl-α-phenyl-, (3R)-], the IC50 in assay [1] and in assay [2] was above 10100 nM each time. As to `COC(=O)C(c1ccccc1)N1CCN(C(=O)c2cnn3c(C(F)(F)F)c(C)c(-c4ccc(OC)cc4)nc23)[C@H](C)C1` (stereo partly drawn) [1-piperazineacetic acid, 4-[[5-(4-methoxyphenyl)-6-methyl-7-(trifluoromethyl)pyrazolo[1,5-α]pyrimidin-3-yl]carbonyl]-3-methyl-α-phenyl-, methyl ester, (3R)-], the IC50 in assay [1] and in assay [2] was below 1000 nM throughout. `COc1ccc(-c2nc3c(C(=O)N4CCN(C(C#N)c5ccccc5)C[C@H]4C)cnn3c(C(F)(F)F)c2C)cc1` (stereo partly drawn) [1-piperazineacetonitrile, 4-[[5-(4-methoxyphenyl)-6-methyl-7-(trifluoromethyl)pyrazolo[1,5-α]pyrimidin-3-yl]carbonyl]-3-methyl-α-phenyl-, (3R)-]: the IC50 in assay [1] and in assay [2] was below 1000 nM throughout. Turning to `COc1ccc(-c2nc3c(C(=O)N4CCN([C@@H](C)c5ccc(C#N)s5)C[C@H]4C)cnn3c(C(F)(F)F)c2C)cc1` [2-thiophenecarbonitrile, 5-[(1S)-1-[(3R)-4-[[5-(4-methoxyphenyl)-6-methyl-7-(trifluoromethyl)pyrazolo[1,5-α]pyrimidin-3-yl]carbonyl]-3-methyl-1-piperazinyl]ethyl]-], the IC50 in assay [1] was 1100 to 10000 nM; in assay [2], below 1000 nM. The corresponding values for `COc1ccc(-c2nc3c(C(=O)N4CCN(C(CO)c5ccc(C(=O)N(C)C)s5)C[C@H]4C)cnn3c(C(F)(F)F)c2C)cc1` (stereo partly drawn) [2-thiophenecarboxamide, 5-[2-hydroxy-1-[(3R)-4-[[5-(4-methoxyphenyl)-6-methyl-7-(trifluoromethyl)pyrazolo[1,5-α]pyrimidin-3-yl]carbonyl]-3-methyl-1-piperazinyl]ethyl]-N,N-dimethyl-] are above 10100 nM and above 10100 nM. As to `COc1ccc(-c2nc3c(C(=O)N4CCN(C(CO)c5ccc(C(=O)O)s5)C[C@H]4C)cnn3c(C(F)(F)F)c2C)cc1` (stereo partly drawn) [2-thiophenecarboxylic acid, 5-[2-hydroxy-1-[(3R)-4-[[5-(4-methoxyphenyl)-6-methyl-7-(trifluoromethyl)pyrazolo[1,5-α]pyrimidin-3-yl]carbonyl]-3-methyl-1-piperazinyl]ethyl]-], the figures for the IC50 in assay [1] and in assay [2] were above 10100 nM and 1100 to 10000 nM, respectively. Turning to `COc1ccc(-c2nc3c(C(=O)N4CCN(C(CO)c5ccccc5NC(C)=O)C[C@H]4C)cnn3c(C(F)(F)F)c2C)cc1` (stereo partly drawn) [acetamide, N-[2-[2-hydroxy-1-[(3R)-4-[[5-(4-methoxyphenyl)-6-methyl-7-(trifluoromethyl)pyrazolo[1,5-α]pyrimidin-3-yl]carbonyl]-3-methyl-1-piperazinyl]ethyl]phenyl]-], the IC50 in assay [1] and in assay [2] was above 10100 nM each time. Consider `COc1ccc(-c2nc3c(C(=O)N4CCN([C@@H](CO)c5ccccc5)C[C@H]4C)cnn3c(C(F)(F)F)c2C)cc1` [drawing 44, methanone, [(2R)-4-[(1R)-2-hydroxy-1-phenylethyl]-2-methyl-1-piperazinyl][5-(4-methoxyphenyl)-6-methyl-7-(trifluoromethyl)pyrazolo[1,5-α]pyrimidin-3-yl]-], for which the IC50 in assay [2] (read-out: 6HB IC50, H9 cells chronically infected with HIV-1 RF, sCD4-induced six-helix bundle formation) was below 1000 nM. Consider `CCC(c1ccccc1)N1CCN(C(=O)c2cnn3c(C(F)(F)F)cc(-c4ccc(OC)cc4)nc23)CC1` (stereo not shown) [methanone, [5-(4-methoxyphenyl)-7-(trifluoromethyl)pyrazolo[1,5-a]pyrimidin-3-yl][4-(1-phenylpropyl)-1-piperazinyl]-], for which the IC50 in assay [2] lay in the range of 1100 to 10000 nM. In the case of `COc1ccc(-c2cc(C(F)(F)F)n3ncc(C(=O)N4CCN(C(C)c5ccccc5)CC4)c3n2)cc1` (stereo not drawn) [methanone, [5-(4-methoxyphenyl)-7-(trifluoromethyl)pyrazolo[1,5-α]pyrimidin-3-yl][4-(1-phenylethyl)-1-piperazinyl]-], the IC50 in assay [2] was in the range of 1100 to 10000 nM. Still for that read-out and setting: then `COc1ccc(-c2cc(C(F)(F)F)n3ncc(C(=O)N4CCN([C@@H](C)c5ccccc5)CC4)c3n2)cc1` [methanone, [5-(4-methoxyphenyl)-7-(trifluoromethyl)pyrazolo[1,5-α]pyrimidin-3-yl][4-(1-phenylethyl)-1-piperazinyl]-], with 1100 to 10000 nM. Same read-out and setting: then `COc1ccc(-c2cc(C(F)(F)F)n3ncc(C(=O)N4CCN([C@H](C)c5ccccc5)CC4)c3n2)cc1` [methanone, [5-(4-methoxyphenyl)-7-(trifluoromethyl)pyrazolo[1,5-α]pyrimidin-3-yl][4-(1-phenylethyl)-1-piperazinyl]-], with 1100 to 10000 nM. Still for that read-out and setting: to `COc1ccc(-c2cc(C(F)(F)F)n3ncc(C(=O)N4CCN(C(c5ccccc5)C(F)(F)F)CC4)c3n2)cc1` (stereo not drawn) [methanone, [5-(4-methoxyphenyl)-7-(trifluoromethyl)pyrazolo[1,5-α]pyrimidin-3-yl][4-(2,2,2-trifluoro-1-phenylethyl)-1-piperazinyl]-] belongs below 1000 nM.
